In ChEMBL document CHEMBL1154798, “Aminocaprophenone- and pyrrolidine-type alkaloids from the leaves of Ficus septica” (J Nat Prod, 2009):

Columns and labels:
[1] = tested on: HeLa; assay: Cytotoxicity against human HeLa cells after 48 hrs by WST8 colorimetric assay; assay type: functional, cell-based
[2] = Cytotoxicity against human ACC-MESO1 cells after 48 hrs by WST8 colorimetric assay; assay type: functional, cell-based; conditions: ACC-MESO-1, 48 h

Structure (SMILES)	IC50 [1] [µM]	IC50 [2] [µM]
COc1cc2c3c(c4ccc(OC)c(OC)c4c2cc1OC)[C@H](O)[C@@H]1CCC[N+]1([O-])C3 (stereo partly specified)	7.1	28
COc1cc(C(=O)CCCCCN(C)C)ccc1O [FICUSEPTAMINE A]	57	160
COc1ccc(C(=O)CCCCCN(C)C)cc1O [FICUSEPTAMINE B]	23	72
COc1cc(C(=O)CC2CCC[N+]2(C)C)ccc1O (stereo unspecified) [FICUSEPTAMINE C]	> 160	> 160
COc1cc(C(=O)CC2CCCN2C)ccc1O (stereo unspecified) [PHYLLOSTERONE]	> 160	> 160
CC(=O)c1ccc(O)c(O[C@@H]2O[C@H](CO)[C@@H](O)[C@H](O)[C@H]2O)c1 [PUNGENIN]	> 160	> 160
COc1ccc(C2=C(c3ccc(OC)c(OC)c3)CN3CCC[C@@H]3C2)cc1OC [SEPTICINE]	38	63
COc1cc2c3c(c4cc(OC)c(OC)cc4c2cc1OC)CN1CCC[C@@H]1C3 [TYLOPHORINE]	3.1	12
